Results taken from patent publication US3962282A, “Juvenile hormone mimics” (priority 1974, dated 1976).

Legend:
[1] = Wigglesworth, J. Ins. Physiol. 9, 105 (1963); cited from earlier work
[2] = system: alfalfa weevil larvae; assay: topical application to alfalfa weevil larvae; assay type: in vivo; conditions: 10 percent solution in acetone, all controls reached normal adulthood
Excerpt: A number of compounds were applied topically to alfalfa weevil larvae as a 10 percent solution in acetone. Acetone and nontreated controls were also run. Ten larvae were used in each test. The number of normal adults emerging from the larvae was observed. In each case, all the acetone and nontreated controls reached normal adulthood. The number of normal adults from treated larvae are reported below.

[3] = system: Mexican bean beetle; assay: topical application to Mexican bean beetle, fourth larval stage, maturation inhibition; assay type: in vivo; conditions: rating scale 0-3
How it was run: (§1)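 Compounds applied topically, 1 μL acetone solution at 10%, 1% or 0.5%, to ten specimens per insect per concentration, alongside acetone and untreated controls; scored after about 8–10 days. Juvenile/adult characteristics rated 0–3 (Tenebrio 0–4), ≥2 meaning unable to reproduce; unreported specimens died during metamorphosis.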

[4] = system: Tenebrio molitor pupae; assay: topical application to Tenebrio molitor pupae, maturation inhibition; assay type: in vivo
How it was run: as §1

[5] = system: milkweed bug; assay: topical application to milkweed bug, fourth nymphal stage, maturation inhibition; assay type: in vivo; conditions: rating scale 0-3
How it was run: as §1

[6] = system: wax moth; assay: topical application to wax moth, fifth larval stage, maturation inhibition; assay type: in vivo
How it was run: as §1

[7] = system: housefly larvae; assay: topical application to housefly larvae; assay type: in vivo, Musca domestica; conditions: scale 0-2
Experimental: The compounds were applied in acetone solution at concentrations of 10 percent, 1 percent and 0.5 percent. One microliter of the acetone solution was applied to each test specimen. Ten test specimens were employed for each insect at each concentration and compared to ten acetone controls and ten zero controls. Approximately eight to ten days were required before results could be ascertained.
A number of compounds were tested against housefly larvae by topical application in an acetone solution using the method described above for the primary test against Tenebrio, milkweed bug, wax moth, and Mexican bean bettel. The results with the first compound are reported on a scale of 0 to 3 with 0 indicating a normal adult, 1 indicating an adult with deformed wings, 2 indicating a partially emerged adult, and 3 indicating no evidence of emergence. The results for the other compounds are reported onn a scale of 0 to 2 with 0 indicating a normal adult, 1 indicating a partially emerged adult and 2 indicating no evidence of emergence.

[8] = system: aphid nymphs; assay: application to aphid nymphs in acetone; assay type: in vivo, Aphis gossypi; conditions: 3 days
Experimental: In another test, female aphids were placed on young squash plants and allowed to produce young for 24 hours. After 24 hours, all adult aphids were removed from the plants and the young were maintained on the plants for an additional 48-hour period. This gave an aphid nymph population having an age of 48 to 72 hours. To each nymph was applied […]. of a 10 percent, 1 percent, or 0.5 percent solution of 2.6- dimethyl-9-(3,4-methylenedioxyphenyl)-2,6-nonadiene or 7,8-epoxy-4-ethyl-8-methyl-1-(3,4-methylenedioxyphenyl)-3-decene in acetone and the aphid nymphs were transferred to new squash plants and observed for possible effects. Ten nymphs were treated with each concentration of each compound and 10 were treated with acetone alone while 10 were not treated to serve as controls. […] There was only one dead nymph treated with acetone alone and one dead nymph in the nontreated controls.

[9] = system: Housefly (Musca domestica); assay: housefly rearing diet test, percent adult emergence; assay type: in vivo
Experimental: Test compounds were mixed with the rearing diet of houseflys at various levels. The prepared diet was then placed in an 8 oz. drinking cup. Three cups were prepared for each treatment level and three control cups. Housefly eggs (Musca domestica) were placed in each cup and they were maintained at 28°C. for 1 week. Fifty pupae were then removed from each cup and placed in a petri dish. After the control pupae had emerged into adults, the percent emergence in each dish was recorded. The test compounds used were 7,8-epoxy-4-ethyl-8-methyl-1-(3,4-methylenedioxyphenyl)-3-decene, 4,8-dimetyl-1-(3,4-methylenedioxyphenyl)-2,6-nonadiene and 2,6-dichloro-2,6-dimethyl-9-(3,4-methylenedioxyphenyl)nonane.

[10] = system: Aedes aegypti mosquito larvae; assay: mosquito larvae in aqueous solutions, adult emergence; assay type: in vivo; conditions: for number of adults, Jar 1 Dead / number of adults, Jar 1 Living / number of adults, Jar 2 Dead / number of adults, Jar 2 Living: 13 days
Experimental: Two compounds, 7,8-epoxy-4-ethyl-8-methyl-1-(3,4-methylenedioxyphenyl)-3-decene and 2,6-diemthyl-9-(3,4-methylenedioxyphenyl)-2,6-nonadiene, were tested against Aedes aegypti mosquito larvae in aqueous solutions at concentrations of 10, 5, 2.5. 1.25 and 0.625 ppm. each. Ninety milliliters of each solution were placed in a pint jar and 30 five-day-old mosquito larvae were added to each jar. Two tests were run at each concentration and control tests employing only solvent with no compound were also run. Food was added to each jar, the jars were covered with cloths, and maintained at 29°C. until adults emerged in the control jars. The number of adults in the test jars was determined.

[11] = 10% in acetone, 1 microliter topical, rating scale 0 (no effect) to 3 (maximum)

9-(2-furyl)-2,6-dimethyl-2,6-nonadiene [dendrolasin]
juvenile hormone activity [1]: some juvenile hormone activity

COc1ccc(CCC=C(C)CCC=C(C)C)cc1OC [2,6-DIMETHYL-9-(3,4-DIMETHOXYPHENYL)-2,6-NONADIENE]
Number of Adults (normal adults from ten treated larvae) [2]: 5 | number of specimens in rating 0 ([3]; 0.5%): 10 specimens | number of specimens in rating 0 ([3]; 1%): 10 specimens | number of specimens in rating 1 ([3]; 10%): 3 specimens | number of specimens in rating 0 ([4]; 0.5%, rating scale 0-4): 10 specimens | number of specimens in rating 0 ([4]; 1%, rating scale 0-4): 4 specimens | number of specimens in rating 1 ([4]; 1%, rating scale 0-4): 5 specimens | number of specimens in rating 0 ([4]; 10% in acetone, 1 microliter topical, rating scale 0 (no effect) to 4 (maximum)): 2 specimens | number of specimens in rating 1 ([4]; 10%, rating scale 0-4): 5 specimens | number of specimens in rating 2 ([4]; 10%, rating scale 0-4): 3 specimens | number of specimens in rating 0 ([5]; 0.5%): 8 specimens | number of specimens in rating 0 ([5]; 1%): 8 specimens | number of specimens in rating 2 ([5]; 10%): 3 specimens | number of specimens in rating 3 ([5]; 10%): 2 specimens | number of specimens in rating 0 ([6]; 0.5%, rating scale 0-3): 10 specimens | number of specimens in rating 0 ([6]; 1%, rating scale 0-3): 10 specimens | number of specimens in rating 0 [6, 11]: 10 specimens

COc1cccc(CCC=C(C)CCC=C(C)C)c1 [2,6-DIMETHYL-9-(3-METHOXYPHENYL)-2,6-NONADIENE]
Number of Adults (normal adults from ten treated larvae) [2]: 6 | number of specimens in rating 0 ([3]; 0.5%): 10 specimens | number of specimens in rating 0 ([3]; 1%): 10 specimens | number of specimens in rating 3 ([3]; 10%): 3 specimens | number of specimens in rating 3 ([4]; 0.5%, rating scale 0-4): 1 specimens | number of specimens in rating 4 ([4]; 0.5%, rating scale 0-4): 9 specimens | number of specimens in rating 4 ([4]; 1%, rating scale 0-4): 10 specimens | number of specimens in rating 4 ([4]; 10%, rating scale 0-4): 10 specimens | number of specimens in rating 0 ([5]; 0.5%): 3 specimens | number of specimens in rating 1 ([5]; 0.5%): 3 specimens | number of specimens in rating 2 ([5]; 0.5%): 4 specimens | number of specimens in rating 1 ([5]; 1%): 1 specimens | number of specimens in rating 2 ([5]; 1%): 5 specimens | number of specimens in rating 3 ([5]; 1%): 3 specimens | number of specimens in rating 3 ([5]; 10%): 9 specimens | number of specimens in rating 0 ([6]; 0.5%, rating scale 0-3): 10 specimens | number of specimens in rating 0 ([6]; 1%, rating scale 0-3): 9 specimens | number of specimens in rating 0 [6, 11]: 9 specimens | number of specimens in rating 2 ([6]; 10%, rating scale 0-3): 1 specimens

CCC(=CCCc1ccc2c(c1)OCO2)CCC1OC1(C)CC (stereo not drawn) [7,8-epoxy-4-ethyl-8-methyl-1-(3,4-methylenedioxyphenyl)-3-decene]
number in rating 0 (normal adult) ([7]; 0.5%): 6 | number in rating 2 (no evidence of emergence) ([7]; 0.5%): 4 | number in rating 0 (normal adult) ([7]; 1%): 5 | number in rating 1 (partially emerged adult) ([7]; 1%): 1 | number in rating 2 (no evidence of emergence) ([7]; 1%): 4 | number in rating 2 (no evidence of emergence) ([7]; 10%): 10 | dead nymphs ([8]; 0.5 percent): nine of the ten | dead nymphs ([8]; 1 percent): all of the nymphs | dead nymphs ([8]; 10 percent): all of the nymphs | number of specimens in rating 3 ([3]; 0.5%): 10 specimens | number of specimens in rating 3 ([3]; 1%): 10 specimens | number of specimens in rating 4 ([4]; 0.5%, rating scale 0-4): 10 specimens | number of specimens in rating 4 ([4]; 1%, rating scale 0-4): 10 specimens | percent adult emergence, Cup 1 ([9]; 0.1 ppm in diet): 100% | percent adult emergence, Cup 2 ([9]; 0.1 ppm in diet): 100% | percent adult emergence, Cup 3 ([9]; 0.1 ppm in diet): 100% | percent adult emergence, Cup 1 ([9]; 1 ppm in diet): 100% | percent adult emergence, Cup 2 ([9]; 1 ppm in diet): 100% | percent adult emergence, Cup 3 ([9]; 1 ppm in diet): 100% | percent adult emergence, Cup 1 ([9]; 10 ppm in diet): 100% | percent adult emergence, Cup 2 ([9]; 10 ppm in diet): 100% | percent adult emergence, Cup 3 ([9]; 10 ppm in diet): 100% | control ([9]; 100 ppm): ≥ 80% | percent adult emergence, Cup 1 ([9]; 100 ppm in diet): 10% | percent adult emergence, Cup 2 ([9]; 100 ppm in diet): 20% | percent adult emergence, Cup 3 ([9]; 100 ppm in diet): 10% | number of adults, Jar 1 Dead ([10]; 0.625 ppm): 0 | number of adults, Jar 1 Living ([10]; 0.625 ppm): 0 | number of adults, Jar 2 Dead ([10]; 0.625 ppm): 0 | number of adults, Jar 2 Living ([10]; 0.625 ppm): 0 | number of adults, Jar 1 Dead ([10]; 1.25 ppm): 0 | number of adults, Jar 1 Living ([10]; 1.25 ppm): 0 | number of adults, Jar 2 Dead ([10]; 1.25 ppm): 0 | number of adults, Jar 2 Living ([10]; 1.25 ppm): 0 | number of adults, Jar 1 Dead ([10]; 2.5 ppm): 0 | number of adults, Jar 1 Living ([10]; 2.5 ppm): 0 | number of adults, Jar 2 Dead ([10]; 2.5 ppm): 0 | number of adults, Jar 2 Living ([10]; 2.5 ppm): 0 | number of adults, Jar 1 Dead ([10]; 5 ppm): 0 | number of adults, Jar 1 Living ([10]; 5 ppm): 0 | number of adults, Jar 2 Dead ([10]; 5 ppm): 0 | number of adults, Jar 2 Living ([10]; 5 ppm): 0 | number of adults, Jar 1 Dead ([10]; 10 ppm): 0 | number of adults, Jar 1 Living ([10]; 10 ppm): 0 | number of adults, Jar 2 Dead ([10]; 10 ppm): 0 | number of adults, Jar 2 Living ([10]; 10 ppm): 0 | control ([10]; at concentrations as low as 0.625 ppm): 100% | live adults in the jars ([10]; nonadiene at 10, 5, and 2.5 ppm, decene at any concentration): never any live adults | number of specimens in rating 3 ([5]; 0.5%): 9 specimens | number of specimens in rating 3 ([5]; 1%): 8 specimens | number of specimens in rating 0 ([6]; 0.5%, rating scale 0-3): 1 specimens | number of specimens in rating 3 ([6]; 0.5%, rating scale 0-3): 9 specimens | number of specimens in rating 3 ([6]; 1%, rating scale 0-3): 10 specimens

CC(C)=CCCC(C)=CCCc1ccc2c(c1)OCCO2 [9-(3,4-ethylenedioxyphenyl)-2,6-dimethyl-2,6-nonadiene]
Number of Adults (normal adults from ten treated larvae) [2]: 7 | number of specimens in rating 4 ([4]; 0.5%, rating scale 0-4): 10 specimens | number of specimens in rating 3 ([4]; 1%, rating scale 0-4): 2 specimens | number of specimens in rating 4 ([4]; 1%, rating scale 0-4): 8 specimens | number of specimens in rating 4 ([4]; 10%, rating scale 0-4): 10 specimens

COc1cc(CCC=C(C)CCC=C(C)C)cc(OC)c1 [9-(3,5-dimethoxyphenyl)-2,6-dimethyl-2,6-nonadiene]
Number of Adults (normal adults from ten treated larvae) [2]: 8
